Assay results: US20250195536A1, “BICYCLOOCTANE KRAS INHIBITORS” (Incyte Corporation, priority 2023, published 2025)

What was measured:
[1] = biological target: KRAS G12D (Homo sapiens, UniProt P01116, G12D); assay: GDP-GTP exchange assay (KRAS G12D); assay type: biochemical; details: bodipy-GDP/GppNHp exchange with SOS1; 4 h pre-incubation, 2 h reaction;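 further: one dagger IC50 up to 100 nM and two daggers above 100 nM up to 1 μM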
How it was run: (§1)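 Bodipy-GDP-loaded KRAS (2.5 nM final) was pre-incubated 4 h at r.t. with inhibitor in Hepes pH 7.5 buffer with MgCl2, then exchange started with GppNHp (500 μM) and SOS1 (150 nM) final. Fluorescence (ex 485/em 520 nm) read after 2 h for G12D, 3 h for G12V; IC50 from four-parameter logistic fit.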

[2] = biological target: KRAS G12V (Homo sapiens, UniProt P01116, G12V); assay: GDP-GTP exchange assay (KRAS G12V); assay type: biochemical; details: bodipy-GDP/GppNHp exchange with SOS1; 3 h incubation after GppNHp-SOS1;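 further: one dagger IC50 up to 100 nM and two daggers above 100 nM up to 1 μM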
How it was run: as §1

[3] = Caco2 assay (permeability, Papp A-B); assay type: in vitro ADME; details: human, Caco-2, absorptive direction (A-B), 50 μM test compound, 4% BSA in receiver
How it was run: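 Caco-2 monolayers, 22-25 days on Transwells, TEER 300 Ω·cm^2, dosed apically with 50 μM compound in HBSS; basolateral HBSS with 4% BSA. 120 min at 37 °C, samples quantified by LCMS; Papp (A-B) from receiver-side cumulative flux slope, donor volume, surface area and initial donor amount.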

KRAS G12D, sequence (P01116 1-188 isoform P01116-2 G12D): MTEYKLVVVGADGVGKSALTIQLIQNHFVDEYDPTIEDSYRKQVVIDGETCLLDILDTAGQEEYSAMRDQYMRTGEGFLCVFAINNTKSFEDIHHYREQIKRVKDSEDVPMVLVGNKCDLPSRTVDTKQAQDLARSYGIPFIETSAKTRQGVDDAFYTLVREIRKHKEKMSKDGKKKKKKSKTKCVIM
KRAS G12V, sequence (P01116 1-188 isoform P01116-2 G12V): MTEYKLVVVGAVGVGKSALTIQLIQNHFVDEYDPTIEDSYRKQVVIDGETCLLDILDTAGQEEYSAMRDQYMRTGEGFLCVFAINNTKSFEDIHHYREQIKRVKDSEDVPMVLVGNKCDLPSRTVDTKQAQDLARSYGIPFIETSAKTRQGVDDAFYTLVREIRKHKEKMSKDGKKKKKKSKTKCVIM

G12D_exchange (KRAS_G12D exchange assay IC50) [1]	G12V_exchange (KRAS_G12V exchange assay IC50) [2]	Papp A→B at 120 min, 50 μM [3] [×10⁻⁶ cm/s]	Structure (SMILES)
††	†	≤ 0.5	Cc1nc2c(F)c(-c3cccc(Cl)c3Cl)c(CCC#N)cc2c2c1cc([C@H]1[C@H]3C[C@H](CN(c4ncccc4C#N)C3)N1C(=O)C1CC1)n2[C@H]1[C@H]2CN[C@@H]1C2 (atropisomer, axis not shown; (Ra)) [Example 47, 2-((1S,5R,7R)-7-((Ra)-1-((1R,4R,5S)-2-azabicyclo[2.1.1]hexan-5-yl)-8-(2-cyanoethyl)-7-(2,3-dichlorophenyl)-6-fluoro-4-methyl-1H-pyrrolo[3,2-c]quinolin-2-yl)-6-(cyclopropanecarbonyl)-3,6-diazabicyclo[3.2.1]octan-3-yl)nicotinonitrile]
†	†	0.5 to 1	Cc1cccnc1N1C[C@@H]2C[C@H](C1)N(C(=O)C1CC1)[C@H]2c1cc2c(C)nc3c(F)c(-c4cccc(Cl)c4Cl)c(CCC#N)cc3c2n1[C@H]1[C@H]2CN[C@@H]1C2 (atropisomer, axis not shown; (Ra)) [Example 48, 3-((Ra)-1-((1R,4R,5S)-2-azabicyclo[2.1.1]hexan-5-yl)-2-((1S,5R,7R)-6-(cyclopropanecarbonyl)-3-(3-methylpyridin-2-yl)-3,6-diazabicyclo[3.2.1]octan-7-yl)-7-(2,3-dichlorophenyl)-6-fluoro-4-methyl-1H-pyrrolo[3,2-c]quinolin-8-yl)propanenitrile]

The next lines start with the molecule.

Structure (SMILES)	G12D_exchange (KRAS_G12D exchange assay IC50) [1]	G12V_exchange (KRAS_G12V exchange assay IC50) [2]	Papp A→B at 120 min, 50 μM [3] [×10⁻⁶ cm/s]
Cc1nc2c(F)c(-c3cccc(Cl)c3Cl)c(CCC#N)cc2c2c1cc([C@H]1[C@H]3C[C@H](CN(c4cnc(C(F)(F)F)cn4)C3)N1C(=O)C1CC1)n2[C@H]1[C@H]2CN[C@@H]1C2 (atropisomer, axis not shown; (Ra)) [Example 44, 3-((Ra)-1-((1R,4R,5S)-2-azabicyclo[2.1.1]hexan-5-yl)-2-((1S,5R,7R)-6-(cyclopropanecarbonyl)-3-(5-(trifluoromethyl)pyrazin-2-yl)-3,6-diazabicyclo[3.2.1]octan-7-yl)-7-(2,3-dichlorophenyl)-6-fluoro-4-methyl-1H-pyrrolo[3,2-c]quinolin-8-yl)propanenitrile]	†	†	≤ 0.5
Cc1nc2c(F)c(-c3cccc(Cl)c3Cl)c(CCC#N)cc2c2c1cc([C@H]1[C@H]3C[C@H](CN(c4ncc(OC(F)F)cn4)C3)N1C(=O)C1CC1)n2[C@H]1[C@H]2CN[C@@H]1C2 (atropisomer, axis not shown; (Ra)) [Example 45, 3-((Ra)-1-((1R,4R,5S)-2-azabicyclo[2.1.1]hexan-5-yl)-2-((1S,5R,7R)-6-(cyclopropanecarbonyl)-3-(5-(difluoromethoxy)pyrimidin-2-yl)-3,6-diazabicyclo[3.2.1]octan-7-yl)-7-(2,3-dichlorophenyl)-6-fluoro-4-methyl-1H-pyrrolo[3,2-c]quinolin-8-yl)propanenitrile]	†	†	≤ 0.5
Cc1nc2c(F)c(-c3cccc(Cl)c3Cl)c(CCC#N)cc2c2c1cc([C@H]1[C@H]3C[C@H](CN(c4ncccc4F)C3)N1C(=O)C1CC1)n2[C@H]1[C@H]2CN[C@@H]1C2 (atropisomer, axis not shown; (Ra)) [Example 46, 3-((Ra)-1-((1R,4R,5S)-2-azabicyclo[2.1.1]hexan-5-yl)-2-((1S,5R,7R)-6-(cyclopropanecarbonyl)-3-(3-fluoropyridin-2-yl)-3,6-diazabicyclo[3.2.1]octan-7-yl)-7-(2,3-dichlorophenyl)-6-fluoro-4-methyl-1H-pyrrolo[3,2-c]quinolin-8-yl)propanenitrile]	†	†	≤ 0.5
